Read-outs that look alike come from different tables or passages of the source. Each block holds one compound with its values, some of them ahead of it.
What was measured:
[1] = bovine blood in vitro hemodialysis model: hemofilter clearance; format: in vitro ADME; details: for Cl, in vitro clearance rate: ultrafiltration 0 ml/min, 37°C, corrected by hematocrit
Procedure: Hemodialysis was simulated using a Fresenius 4008H dialysis machine. After priming of the extracorporeal circuit including the dialysis membrane with 0.9% saline solution, a reservoir bag containing 2 L of 37°C warm heparinized bovine blood (provided in cooperation with the University of Veterinary Medicine Vienna after seeking authorization by the institutional and governmental ethics committee, (ZI.04/04/972,013, GZ: 68.205/0240-WF/V/3b/2016) was connected to the circuit. The blood was kept at 37°C throughout the experiment. It was mixed with 2,000 IU of low molecular weight heparin directly during the blood draw as well as during the experiment itself with a rate of 500 IU per hour. After circuit connection, the investigated drug was added to the reservoir in order to mimic plasma levels previously described in trials ([Lanese et al., 1989]; [Thalhammer et al., 1997]; [Amin et al., 1999]). […] After priming the system with blood, it was allowed to run for 30 s to allow equilibration of blood hematocrit throughout the extracorporeal circuit before the baseline sample was drawn. Due to the reduced volume compared to in vivo and the comparably large hemofilter membrane area, a considerably faster drug concentration decline was expected. Thus, pre filter, post filter and ultrafiltrate samples were collected at the end of minutes 1, 5, 10, 15, 20, 30, 40 and 60 of the run. All samples were plasma separated by centrifugation at 2000 ×vg for 7 min and the supernatant stored at −80°C for analysis.
An actual blood flow rate of 300 ml/min and a dialysate flow rate of 500 ml/min were kept as standard flow rates. Depending on previous literature, single drugs were run at different flow rates to allow external validation of the model. Ultrafiltration (corresponding to negative fluid balance/water removal during hemodialysis) was kept at 0 ml/min. […] Hemodialysation and hemofiltration experiments were performed with Baxter Gambro CAHP 170 diacetate devices, Nipro Sureflux 17UX and 21UX triacetate membranes as well as Fresenius Hemoflow F80s and FX 80 polysulphone membranes.
The measured drug plasma concentrations were analyzed to calculate the area under the curve, hemofilter clearance and the drug saturation coefficient. As removal within the hemofilter is expected to be too fast for equilibration of drugs out of the erythrocyte compartment and drug concentrations were measured in the plasma, all clearance values were calculated with a hematocrit corrected formula, in which Hc is the blood hematocrit in percent divided by 100, BFR the actual blood flow rate, Cpre the drug concentration measured before the blood enters the filter and Cpost the drug concentration measured after the filter. Additionally the formula allows for correction of blood concentration by ultrafiltration (UFR). (1−Hc)×BFR×Cpre−(Cpost(BFR−UFR))/BFR/[…]
Hematocrit corrected and not corrected clearance, total “body” clearance, volume of distribution, area under curve, elimination coefficient and half-life were evaluated for their correspondence to previously published in vivo values. Whenever previous publications declared the method of clearance calculation, the same formula was used. […] An empirical fitting of the in vitro PK curves and available in vivo PK curves was performed to gain an insight into the time relation between in vitro and in vivo.
More recent historic data on intradialytic gentamicin clearance only exists for the Baxter CAHP-210 membrane ([Sowinski et al., 2008]) and the Fresenius F80s ([Amin et al., 1999]) which are both not available anymore. Baxter however was kind enough to supply us with several CAHP-170 and […] models. To extrapolate assumed clearance of a CAHP-210, we compared clearance gains between a Nipro Sureflux 17UX and a Sureflux 21UX membrane.

[2] = cited from earlier work
Excerpt: TABLE 2 Comparison of in vitro and in vivo clearance values.

[3] = cited from earlier work; remark: listed apart in the source
[4] = plasma protein binding in bovine plasma (ultrafiltration); details: bovine plasma from two cows, 2000 x g
[5] = earlier publications, slightly higher bound fraction, (±3.0); ref PMC, 1972; cited from earlier work
[6] = membrane Fx80 (Fresenius high flux polysulphone, 1.8 m^2), BFR 300 ml/min, DFR 500 ml/min, bovine blood, mean, N = 12

- Cl, in vitro clearance rate ([1]; membrane F60s (Fresenius polysulphone), BFR 250 ml/min, DFR 500 ml/min, bovine blood, mean, N = 16): 25.50 mL/min
- Clin vitro, non hematocrit corrected clearance ([1]; membrane F60s, bovine blood in vitro hemodialysis, non hematocrit corrected, mean): 38.95 mL/min
- Cl, in vitro clearance rate ([1]; membrane Fx80 (Fresenius polysulphone), BFR 250 ml/min, DFR 500 ml/min, bovine blood, mean, N = 12): 43.49 mL/min
- clearance, simulation with Sureflux SF 21E triacetate dialyzer ([1]; membrane Sureflux SF 21E triacetate, bovine blood in vitro hemodialysis, flow rates not given): 17.6 mL/min
Compound: teicoplanin
- Clin vivo, non-hematocrit corrected clearance ([2]; human, in vivo): 39.70 mL/min

Compound: CNC(C)C1CCC(N)C(OC2C(N)CC(N)C(OC3OCC(C)(O)C(NC)C3O)C2O)O1 (centres unmarked) [Gentamicin, gentamicin]
- Cl, in vitro clearance rate ([1]; membrane CAHP-170 (Baxter cellulose diacetate, 1.7 m^2), BFR 400 ml/min, DFR 800 ml/min, bovine blood, mean, N = 16): 90.12 mL/min
- Cl, in vitro clearance rate ([1]; membrane F80s (Fresenius high flux polysulphone, 1.8 m^2), BFR 300 ml/min, DFR 500 ml/min, bovine blood, mean, N = 12): 122.37 mL/min
- Cl, in vitro clearance rate ([1]; membrane F80s (Fresenius high flux polysulphone, 1.8 m^2), BFR 400 ml/min, DFR 800 ml/min, bovine blood, mean, N = 12): 137.62 mL/min
- Cl, in vitro clearance rate [1, 6]: 142.13 mL/min
- Cl, in vitro clearance rate ([1]; membrane Fx80 (Fresenius high flux polysulphone, 1.8 m^2), BFR 400 ml/min, DFR 800 ml/min, bovine blood, mean, N = 12): 187.90 mL/min
- Cl, in vitro clearance rate ([1]; membrane SF17UX (Nipro cellulose triacetate, 1.7 m^2), BFR 400 ml/min, DFR 800 ml/min, bovine blood, mean, N = 12): 160.75 mL/min
- Cl, in vitro clearance rate ([1]; membrane SF21E (Nipro Sureflux-21E medium-flux cellulose triacetate, 2.1 m^2), BFR 400 ml/min, DFR 800 ml/min, 2 L heparinized bovine blood, mean, N = 12): 131.52 mL/min
- Cl, in vitro clearance rate ([1]; membrane SF21UX (Nipro cellulose triacetate, 2.1 m^2), BFR 400 ml/min, DFR 800 ml/min, bovine blood, mean, N = 17): 178.25 mL/min

- plasma protein binding, Bovine ([4]; Centrisart I devices, 20 min, room temperature, HPLC): 9.7%
- Cl, in vitro clearance rate [1, 6]: 141.25 mL/min
- Cl, in vitro clearance rate ([1]; membrane SF21UX (Nipro cellulose triacetate, 2.1 m^2), BFR 300 ml/min, DFR 500 ml/min, bovine blood, mean, N = 12): 155.76 mL/min
Compound: C[C@@H](O)[C@H]1C(=O)N2C(C(=O)O)=C(S[C@@H]3CN[C@H](CNS(N)(=O)=O)C3)[C@H](C)[C@H]12 [Doripenem, doripenem]
- plasma protein binding, Human [3]: 8.0%
- Clin vivo, clearance as described in referenced publication ([2]; human, in vivo): 148.61 mL/min

Compound: CN[C@H](CC(C)C)C(=O)N[C@H]1C(=O)N[C@@H](CC(N)=O)C(=O)N[C@H]2C(=O)N[C@H]3C(=O)N[C@H](C(=O)N[C@H](C(=O)O)c4cc(O)cc(O)c4-c4cc3ccc4O)[C@H](O)c3ccc(c(Cl)c3)Oc3cc2cc(c3O[C@@H]2O[C@H](CO)[C@@H](O)[C@H](O)[C@H]2O[C@H]2C[C@](C)(N)[C@H](O)[C@H](C)O2)Oc2ccc(cc2Cl)[C@H]1O [Vancomycin, vancomycin]
- plasma protein binding, Human ([3]; previously published value, ref Butterfield et al. (2011)): 41.5%
- plasma protein binding, Bovine ([4]; Millipore Centrefree device, 1 ml aliquot, 10 min, Cobas VANC3 assay): 43.6%
- Clin vivo, clearance as described in referenced publication ([2]; hemodialysis patients, membrane F60s, ref Lanese et al. (1989)): 73.0 mL/min
- Clin vivo, clearance as described in referenced publication ([2]; hemodialysis patients, membrane F80s, ref Lanese et al. (1989)): 85.2 mL/min
- bound fraction [5]: 54.8%
